Assay results published in patent US9926326B2, “Substituted thioxanthenone autophagy inhibitors” (THE CLEVELAND CLINIC FOUNDATION, priority 2014, dated 2018).

Key:
[1] = system: A498; assay: 72 h MTT assay, A498; type: cell-based; settings: Homo sapiens, A498, Renal
Protocol: (§1) Cells and cell culture. A498, 786-0, Achn and Caki-2 cells were obtained from ATCC (Manassas. Va.). Cells were cultured with medium supplemented with 10% FBS at 37° C. with 5% CO2 as previously described. Swords et al., Blood 2010; 115:3796.800. Human normal renal proximal tubule epithelial cells (RPTEC) were purchased from Clonetics (Walkersville, Md.) and cultured in REGM media (REGM BulletKit, Clonetics). Cell lines were authenticated by the source banks using DNA profiling techniques and were used for this study in accordance with AACR guidelines.
(§2) Quantification of drug-induced cytotoxicity. Cell viability was assessed by MIT assay. Cells were seeded into 96-well microculture plates at […] per well and allowed to attach for 24 h. Cells were then treated with ROC-325 or HCQ for 72 h. Following drug treatment, MTT was added and cell viability was quantified using a BioTek (Winooski, Vt.) microplate reader. Pro-apoptotic effects following in vitro drug exposure were quantified by propidium iodide (PI) staining and fluorescence-activated cell sorting (FACS) analysis of sub-G0/G1 DNA content as previously described and by measurement of active caspase-3 by flow cytometry using a commercial kit (BD Biosciences, San Jose, Calif.). Mahalingam et al., Clin Cancer Res 2010; 16:141-53.

[2] = system: A549; assay: 72 h MTT assay, A549; type: cell-based; settings: Homo sapiens, A549, Lung
Protocol: as §2

[3] = system: CFPAC-1; assay: 72 h MTT assay, CFPAC-1; type: cell-based; settings: Homo sapiens, CFPAC-1, Pancreas
Protocol: as §2

[4] = system: COLO-205; assay: 72 h MTT assay, COLO-205; type: cell-based; settings: Homo sapiens, COLO-205, Colon
Protocol: as §2

[5] = system: DLD-1; assay: 72 h MTT assay, DLD-1; type: cell-based; settings: Homo sapiens, DLD-1, Colon
Protocol: as §2

[6] = system: IGROV-1; assay: 72 h MTT assay, IGROV-1; type: cell-based; settings: Homo sapiens, IGROV-1, Ovarian
Protocol: as §2

[7] = system: MCF-7; assay: 72 h MTT assay, MCF-7; type: cell-based; settings: Homo sapiens, MCF7, MCF-7, Breast
Protocol: as §2

[8] = system: MiaPaCa-2; assay: 72 h MTT assay, MiaPaCa-2; type: cell-based; settings: Homo sapiens, MIA PaCa-2, MiaPaCa-2, Pancreas
Protocol: as §2

[9] = system: NCI-H69; assay: 72 h MTT assay, NCI-H69; type: cell-based; settings: Homo sapiens, NCI-H69, Lung
Protocol: as §2

[10] = system: PC-3; assay: 72 h MTT assay, PC-3; type: cell-based; settings: Homo sapiens, PC-3, Prostate
Protocol: as §2

[11] = system: RL; assay: 72 h MTT assay, RL; type: cell-based; settings: Homo sapiens, NHL
Protocol: as §2

[12] = system: UACC-62; assay: 72 h MTT assay, UACC-62; type: cell-based; settings: Homo sapiens, UACC-62, Melanoma
Protocol: as §2

[13] = Carew et al., J Biol Chem 2011; cited from earlier work
[14] = system: 12 different human cancer cell lines; assay: Direct comparison of in vitro anticancer effects in 12 cancer cell lines (MTT); type: cell-based; settings: all 12 models tested, 72 h MTT
Protocol: as §2

[15] = system: RCC cell lines (786-0, A498, Achn, and Caki-2); assay: MTT cell viability in RCC cell lines; type: cell-based, human; settings: 72 hours
Protocol: as §1, §2

[16] = system: normal renal proximal tubule endothelial cells (RPTEC); assay: MTT cell viability in normal renal cells; type: cell-based, human; settings: 72 hours
Protocol: as §1, §2

[17] = system: RCC cells; assay: Apoptosis: active caspase-3 flow cytometry and PI-FACS DNA fragmentation; type: cell-based, human; settings: 48 hours
Protocol: as §2

[18] = system: 786-0 RCC xenografts; assay: In vivo evaluation in 786-O RCC xenografts; set-up: species or system nude mice
Protocol: In vivo evaluation of ROC-325 and HCQ. 786-O renal cancer cells (5×106) were suspended in a mixture of HBSS and Matrigel and subcutaneously implanted into female nude mice (BALB/c background). Tumor-bearing animals from each cell line xenograft were randomized into treatment groups. Mice were treated with vehicle (water), ROC-325 (25, 40, and 50 mg/kg PO), or HCQ (60 mg/kg IP) QD×5 for 6 weeks. Mice were monitored daily and tumor volumes were measured twice weekly. At study completion, tumors from representative animals were excised from each group, […], and paraffin-embedded for immunohistochemical analysis.
Immunohistochemistry. Paraffin-embedded tumor sections were deparaffinized in xylene, exposed to a graded series of alcohol, and rehydrated in PBS (pH 7.5). Heat-induced epitope retrieval on paraffin-embedded sections and probing with specific antibodies was conducted as previously described. Nawrocki et al., Clin Cancer Res 2013; 19:3577-90. Positive reactions were visualized using 3,3′-diaminobenzidine (Dako, Glostrup, Denmark). Images were captured using an Olympus fluorescent microscope (Center Valley. Pa.) with a DP71 camera and a 20× objective. Image-Pro Plus software Version 6.2.1 (MediaCybernetics, Bethesda, Md.) was used for image acquisition. ImageJ software was used for quantification of LC3B and p62 levels by densitometric analysis of five random fields containing viable tumor cells. Quantification of cleaved caspase-3 was conducted by counting the number of positive cells in five random fields as previously described. Carew et al., Cancer Res 2008; 68:4783-90.

[19] = system: A498 and 786-O cells; assay: Giemsa staining, vacuolization; type: cell-based, human; settings: 5 μM, 24 h
Protocol: Giemsa staining. Cells were plated in chamber slides as previously described and treated with ROC-325 for 24 h. Carew et al., J Biol Chem 2011; 286:6602-13. Following drug treatment, cells were washed with PBS and fixed in methanol for 5 minutes. Cells were then incubated for 1 h in Giemsa stain diluted 1:20 with deionized water. Cells were rinsed with water and imaged using an Olympus fluorescent microscope. Image-Pro Plus software Version 6.2.1 was used for image acquisition.

[20] = system: RCC cells; assay: Transmission electron microscopy; type: cell-based, human; settings: 5 μM, 24 h
Protocol: Transmission electron microscopy. Transmission electron microscopy of cells was performed as previously described. Carew et al., J Cell Mol Med 2010 Oct.; 14(10):2448-59. RCC cells were treated with ROC-325 for 24 h and harvested for imaging. Briefly, sections were cut in an LKB Ultracut microtome (Leica. Deerfield, Ill.), stained with uranyl acetate and lead citrate, and examined in a JEM 1230 transmission electron microscope (JEOL, USA, Inc., Peabody, Mass.). Images were captured using the AMT Imaging System (Advanced Microscopy Techniques Corp, Danvers. Mass.).

[21] = system: 786-O and A498 cells; assay: Acridine orange staining of acidic lysosomes; type: cell-based, human; settings: 24 h
Protocol: Acridine orange staining. Acidic lysosomes were visualized by acridine orange staining as previously described. Carew et al., J Biol Chem 2011; 286:6602-13. After treatment with ROC-325 for 24 h, cells were stained with 1 μM acridine orange for 15 minutes at 37° C. Cells were washed with PBS and images were captured using an Olympus fluorescent microscope. Acidic lysosomes appear as orange fluorescent cytoplasmic vesicles. Quantification of 5 random fields of acridine orange intensity and image acquisition were performed using Image-Pro Plus software Version 6.2.1.

[22] = system: cathepsin D (CTSD); assay: Cathepsin D expression, microarray and qRT-PCR; type: cell-based, human; settings: A498 and 786-0, 5 μM, 24 hours; confirmed by qRT-PCR
Protocol: Expression microarrays. RCC cells were treated with […] for 24 h. Total RNAs were isolated using the RNeasy Plus Mini Kit (Qiagen, Germantown, Md.) and treated with TURBO DNA-Free™ Kit (Applied Biosystems, Foster City, Calif.), 300 ng of total RNA per sample was amplified and hybridized to GeneChip® Human Gene 1.0 ST arrays (Affymetrix, Inc., Santa Clara, Calif.) according to the manufacturer's instructions. Affymetrix CEL files were imported into Partek® Genomics Suite™ 6.4 (Partek Inc., St. Louis. Mo.) using the default Partek normalization parameters and the robust multi-array average (RMA) analysis adjusted for probe sequence and GC content (GC-RMA). Data normalization was performed across all arrays using quantile normalization.
Quantitative real time polymerase chain reaction, cDNA from ROC-325 treated cells were used for relative quantification by RT-PCR analyses. First-strand cDNA synthesis was performed from 1 μg RNA in a 20 μl reaction mixture using the high-capacity eDNA Reverse Transcription Kit (Applied Biosystems, Foster City, Calif.). Cathepsin D (CTSD) and GAPDH transcripts were amplified using commercially available TaqMan® Gene expression assays (Applied Biosystems, Foster City, Calif.). Relative gene expression was calculated with the 2-Ct method using GAPDH as a housekeeping gene. Pfaffl M W., Nucleic Acids Res 2001; 29:e45.

[23] = system: LC3B; assay: LC3B immunocytochemistry; type: cell-based, human; settings: 5 μM, 24 hours, A498 and 786-0
Protocol: Immunocytochemistry. Cells were plated on chamber slides and allowed to attach overnight. Cells were then treated for 24 h with ROC-325. Following drug treatment, cells were fixed with 4% paraformaldehyde, permeabilized using 0.2% triton-X-100, and incubated overnight with anti-LC3B antibody. Alexa Fluor 594 conjugated fluorescent secondary antibody was used to visualize protein localization. Dapi was utilized to stain the nucleus. Images were captured using an Olympus fluorescent microscope (Center Valley, Pa.) with a DP71 camera and a 60× objective. Image-Pro Plus software Version 6.2.1 (MediaCybernetics, Bethesda, Md.) was used for image acquisition.

[24] = system: LC3B, p62, cathepsin D; assay: Immunoblotting of autophagy markers and autophagic flux with bafilomycin A1; type: cell-based, human
Protocol: Immunoblotting. Renal cancer cells were incubated with ROC-325 for 24 h. Cells were harvested and were then lysed as previously described. Nawrocki S T, Carew J S, Maclean K H, Courage J F, Huang P, Houghton J A, Cleveland J L, Giles F J, McConkey D J. Myc regulates aggresome formation, the induction of Noxa, and apoptosis in response to the combination of bortezomib and SAHA. Blood 2008; 112:2917-26. Approximately 50 μg of total cellular protein from each sample were subjected to SDS-PAGE, proteins were transferred to nitrocellulose membranes, and the membranes were blocked with 5% nonfat milk in a Tris-buffered saline solution containing 0.1% Tween-20 for 1 h. The blots were then probed overnight at 4° C. with primary antibodies, washed, and probed with species-specific secondary antibodies coupled to horseradish peroxidase. Immunoreactive material was detected by enhanced chemiluminescence (West Pico, Pierce, Inc., […]. Ill.).

Row | SMILES | IC50 [1] [µM] | IC50 [2] [µM] | IC50 [3] [µM] | IC50 [4] [µM] | IC50 [5] [µM] | IC50 [6] [µM] | IC50 [7] [µM] | IC50 [8] [µM] | IC50 [9] [µM] | IC50 [10] [µM] | IC50 [11] [µM] | IC50 [12] [µM] | further results
1 | CCN(CCO)CCCC(C)Nc1ccnc2cc(Cl)ccc12 (stereo not drawn) [HCQ, hydroxychloroquine, reference compound] | 52 | > 75 | > 75 | 51 | > 75 | > 75 | > 75 | > 75 | 54 | 58 | 35 | > 75 | –
2 | CCN(CC)CCNc1ccc(C)c2sc3ccccc3c(=O)c12 [LUC, lucanthone] | – | – | – | – | – | – | – | – | – | – | – | – | anticancer activity compared to CQ [13]: approximately 10 ×
3 | Cc1ccc(NCCN(C)CCNc2ccnc3cc(Cl)ccc23)c2c(=O)c3ccccc3sc12 [ROC-325] | 4.9 | 11 | 4.6 | 5.4 | 7.4 | 11 | 8.2 | 5.8 | 5 | 11 | 8.4 | 6 | lower IC50s than HCQ [14]: approximately 10 fold; more effective at diminishing RCC cell viability than HCQ [15]: approximately 10 fold; cell viability of normal renal cells [16]: marginal reduction in cell viability; percentages of cells with active caspase-3 expression [17]: dose-dependent increases; percentages of cells with fragmented DNA ([17]; PI-FACS): dose-dependent increases; tolerability ([18]; 25, 40, or 50 mg/kg PO, nude mice): well tolerated; disease progression (tumor volume) ([18]; 25, 40, or 50 mg/kg QD PO, 786-0 xenografts in nude mice): significant, dose-dependent inhibition of disease progression; LC3B in tumors (immunohistochemistry) ([18]; 786-0 xenograft specimens): significant, dose-dependent increases; apoptosis in tumors (cleaved caspase-3 immunohistochemistry) ([18]; 786-0 xenograft specimens): increased apoptosis; p62 in tumors (immunohistochemistry) ([18]; 786-0 xenograft specimens): significant, dose-dependent increases; mean body weight ([18]; highest dose, end of study (Day 46)): very modest, non-significant reduction; oral bioavailability ([18]; mice, PO): orally bioavailable; cytosolic vacuolization [19]: induced cytosolic vacuolization; autophagosomes [20]: promoted the accumulation of autophagosomes; acridine orange fluorescence (lysosomal membrane permeability) [21]: significant loss of acridine orange fluorescence; CTSD levels [22]: highly significant increase; LC3B distribution and levels [23]: formation of LC3B punctae and a robust increase in LC3B levels; autophagic flux ([24]; 786-0, alone and combined with bafilomycin A1): effectively inhibited autophagic flux; LC3B expression (immunoblotting) ([24]; A498 and 786-0, 24 h): dose-dependent increase; levels of p62 and cathepsin D (immunoblotting) ([24]; A498 and 786-0, 24 h): corresponding increase
